The experiment has as its target T1, human ProRS (prolyl tRNA synthetase moiety of glutamyl prolyl tRNA synthetase) (Homo sapiens, UniProt P07814).
T1 construct: The prolyl tRNA synthetase moiety (ProRS) in the cDNA of glutamyl prolyl tRNA synthetase was subcloned; 6xHis (N, cleaved yes); made in house; host or cells: E. coli BL21 (DE3)
T1 sequence (P07814 1007-1512 limits assumed): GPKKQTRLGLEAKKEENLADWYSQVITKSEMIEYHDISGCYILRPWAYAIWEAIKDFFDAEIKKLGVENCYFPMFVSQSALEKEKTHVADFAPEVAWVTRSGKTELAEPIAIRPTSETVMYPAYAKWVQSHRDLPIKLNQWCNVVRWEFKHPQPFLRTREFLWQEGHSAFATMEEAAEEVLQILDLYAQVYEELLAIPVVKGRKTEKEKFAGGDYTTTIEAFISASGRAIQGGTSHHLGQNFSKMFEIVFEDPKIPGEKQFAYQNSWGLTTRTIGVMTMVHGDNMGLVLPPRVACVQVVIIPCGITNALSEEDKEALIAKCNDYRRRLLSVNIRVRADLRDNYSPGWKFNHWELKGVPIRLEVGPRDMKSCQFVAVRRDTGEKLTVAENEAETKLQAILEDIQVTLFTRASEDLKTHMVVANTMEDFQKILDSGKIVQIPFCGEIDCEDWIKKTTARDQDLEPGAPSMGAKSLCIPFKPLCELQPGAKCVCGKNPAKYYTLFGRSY
As to the kind of experiment: Assay for inhibitors of prolyl tRNA synthetase activity (ProRS assay, labeled proline incorporation). It counts as biochemical. The note with it: ProRS 20 nM, compounds 10 μM to 0.5 nM, 10 min at 37° C.; read-out: EPR IC50. From the text:
In order to establish the activities of the compounds highlighted above, we determined extent of inhibition of prolyl tRNA synthetase activity in dose response curves to obtain IC50 values.
The prolyl tRNA synthetase moiety (ProRS) in the cDNA of glutamyl prolyl tRNA synthetase was subcloned, tagged with a single biotin, purified and used in the assay. Briefly, human ProRS with a 6× N-terminal His tag in pET28N with TVMV BioP was transformed in E. coli BL21 (DE3) cells, selected, overexpressed and purified using a Ni Seph 6 FF XK 16/20 column in the first stage. Ni-NTA eluates were pooled and treated with TVMV protease, and biotinylated using d-Biotin, MgCl2, ATP and the BirA enzyme. This was rerun through a Ni column as before. The eluates were further enriched and purified using membrane ultrafiltration and a SuperDex 200 XK 16/60 column, and peak fractions were confirmed by SDS-PAGE prior to protein amount determination, aliquoting and storage at −80° C.
ProRS assay was performed in 96 well plates in a final reaction volume of 20 μl, using staggered additions of Tris-Cl (pH 7.5, 60 mM), dithiothreitol (2 mM), ATP (5 mM, pH 7.0), MgCl2 6 mM), ProRS (20 nM, with pre-determined active fraction range) and bovine tRNA (20 μg). Controls and compounds, at various concentrations (10 μM to 0.5 nM), were incubated on ice with enzyme mix for 15 min followed by addition of proline (non-labeled and labeled, 3.96 and 1.04 μM (1 μCi) respectively) to initiate the reaction. Reaction was carried out for 10 min at 37° C. and terminated by addition of TCA (10%, 100 μl). Reaction mix was collected on a Whatman GF/B filter using a vacuum filtration manifold. This filter was washed 3 times with 5% TCA followed by 2 washes with ethanol, air dried, and read using a liquid scintillation counter (TopCount NXT) using MicroScint O. IC50 values were calculated and analyzed using ToolSet (4-parameter plot) and depicted herein.

Molecules are shown by their SMILES. Structures can show the parent of a compound that is named as a salt.

With `Cc1cc(Cl)cc2c(=O)n(CC(=O)CC3CCCCN3)cnc12` (stereo not drawn) [Example 3, 6-Chloro-8-methyl-3-[2-oxo-3-(piperidin-2-yl)propyl]quinazolin-4(3H)-one hydrochloride], the IC50 came out at 71 nM.

For the compound `Cc1cc(Cl)cc2c(=O)n(CC(=O)CC3CCCCN3)cnc12` (stereo not drawn) [Example 4, 6-Chloro-8-methyl-3-[2-oxo-3-(piperidin-2-yl)propyl]quinazolin-4(3H)-one hydrochloride], the IC50 was found to be 807 nM.

In the case of `O=C(C[C@H]1NCCC[C@@H]1O)Cn1cnc2ccc(-c3cccc(Cl)c3)nc2c1=O` [Example 5, 6-(3-chlorophenyl)-3-{3-[(2R,3S)-3-hydroxypiperidin-2-yl]-2-oxopropyl}pyrido[3,2-d]pyrimidin-4(3H)-one dihydrochloride], the IC50 is 10 nM.

As to `O=C(C[C@H]1NCCC[C@@H]1O)Cn1cnc2ccc(-c3cccc(C(F)(F)F)c3)nc2c1=O` [Example 6, 3-{3-[(2R,3S)-3-Hydroxypiperidin-2-yl]-2-oxopropyl}-6-[3-(trifluoromethyl)phenyl]pyrido[3,2-d]pyrimidin-4(3H)-one dihydrochloride], the IC50 was 23 nM.

For the compound `O=C(C[C@H]1NCCC[C@@H]1O)Cn1cnc2ccc(-c3cccc(F)c3)nc2c1=O` [Example 7, 6-(3-Fluorophenyl)-3-{3-[(2R,3S)-3-hydroxypiperidin-2-yl]-2-oxopropyl}pyrido[3,2-d]pyrimidin-4(3H)-one dihydrochloride], the IC50 was determined as 5 nM.

Regarding `O=C(C[C@H]1NCCC[C@@H]1O)Cn1cnc2ccncc2c1=O` [Example 8, 3-{3-[(2R,3S)-3-hydroxypiperidin-2-yl]-2-oxopropyl}pyrido[4,3-d]pyrimidin-4(3H)-one dihydrochloride], the IC50 came to 14 nM.

For the compound `O=C(C[C@H]1NCCC[C@@H]1O)Cn1cnc2ccc(-c3ccc(F)c(F)c3)nc2c1=O` [Example 9, 6-(3,4-difluorophenyl)-3-{3-[(2R,3S)-3-hydroxypiperidin-2-yl]-2-oxopropyl}pyrido[3,2-d]pyrimidin-4(3H)-one dihydrochloride], the IC50 is 8 nM.

On to `O=C(C[C@H]1NCCC[C@@H]1O)Cn1cnc2ccc(-c3cccnc3)nc2c1=O` [Example 11, 3-{3-[(2R,3S)-3-hydroxypiperidin-2-yl]-2-oxopropyl}-6-(pyridin-3-yl)pyrido[3,2-d]pyrimidin-4(3H)-one trihydrochloride], for which the IC50 is 9 nM.

For `Cc1cc(C2CC2)nc2c(=O)n(CC(=O)C[C@H]3NCCC[C@@H]3O)cnc12` [Example 12, 6-cyclopropyl-3-(3-((2R,3S)-3-hydroxypiperidin-2-yl)-2-oxopropyl)-8-methylpyrido[3,2-d]pyrimidin-4(3H)-one dihydrochloride], the IC50 stood at 13 nM.

For `Cc1cc(C(F)(F)F)nc2c(=O)n(CC(=O)C[C@H]3NCCC[C@@H]3O)cnc12` [Example 13, 3-{3-[(2R,3S)-3-hydroxypiperidin-2-yl]-2-oxopropyl}-8-methyl-6-(trifluoromethyl)pyrido[3,2-d]pyrimidin-4(3H)-one dihydrochloride], the IC50 was 17 nM.

Turning to `Cc1cc(-c2cccc(F)c2)nc2c(=O)n(CC(=O)C[C@H]3NCCC[C@@H]3O)cnc12` [Example 14, 6-(3-fluorophenyl)-3{3-[(2R,3S)-3-hydroxypiperidin-2-yl]-2-oxopropyl}-8-methylpyrido[3,2-d]pyrimidin-4(3H)-one dihydrochloride], the IC50 came out at 7 nM.

Turning to `Cc1cc(-c2cccc(C(F)(F)F)c2)nc2c(=O)n(CC(=O)C[C@H]3NCCC[C@@H]3O)cnc12` [Example 15, 3-{3-[(2R,3S)-3-hydroxypiperidin-2-yl]-2-oxopropyl}-8-methyl-6-(3-(trifluoromethyl)phenyl)pyrido[3,2-d]pyrimidin-4(3H)-one bis(2,2,2-trifluoroacetic acid)], the IC50 worked out at 8 nM.

Turning to `Cc1cc(-c2cccc(Cl)c2)nc2c(=O)n(CC(=O)C[C@H]3NCCC[C@@H]3O)cnc12` [Example 16, 6-(3-chlorophenyl)-3-{3-[(2R,3S)-3-hydroxypiperidin-2-yl]-2-oxopropyl}-8-methylpyrido[3,2-d]pyrimidin-4(3H)-one bis(2,2,2-trifluoroacetate)], the IC50 was 3 nM.

In the case of `Cc1cc(-c2cccnc2)nc2c(=O)n(CC(=O)C[C@H]3NCCC[C@@H]3O)cnc12` [Example 17, 3-{3-[(2R,3S)-3-hydroxypiperidin-2-yl]-2-oxopropyl}-8-methyl-6-(pyridin-3-yl)pyrido[3,2-d]pyrimidin-4(3H)-one trihydrochloride], the IC50 was 12 nM.

As for `Cc1cc(C(C)C)cc2c(=O)n(CC(=O)C[C@@H]3CCCCN3)cnc12` [Example 18, (S)-6-isopropyl-8-methyl-3-{2-oxo-3-[piperidin-2-yl]propyl}quinazolin-4(3H)-one hydrochloride], the 50% inhibitory concentration (IC50) was 140 nM.

For `Cc1cc(C(F)(F)F)cc2c(=O)n(CC(=O)C[C@@H]3CCCCN3)cnc12` [Example 19, (S)-8-methyl-3-{2-oxo-3-[piperidin-2-yl]propyl}-6-(trifluoromethyl)quinazolin-4(3H)-one 2,2,2-trifluoroacetate], the IC50 stood at 159 nM.

Consider `O=C(C[C@@H]1CCCCN1)Cn1cnc2ccncc2c1=O` [Example 20, (S)-3-{2-oxo-3-[piperidin-2-yl-propyl-pyrido(4,3-d)]}pyrimidin-4(3H)-one-dihydrochloride], for which the IC50 amounted to 60 nM.

Take `Cc1cc(C)c2ncn(C[C@@H](O)C[C@H]3NCCC[C@@H]3O)c(=O)c2n1` [Example 21, 3-{(S)-2-hydroxy-3-[(2R,3S)-3-hydroxypiperidin-2-yl]propyl}-6,8-dimethylpyrido[3,2-d]pyrimidin-4(3H)-one dihydrochloride]: the concentration for half-maximal inhibition (IC50) stood at 491 nM.

`O=c1c2nc(-c3cccc(Cl)c3)ccc2ncn1C[C@@H](O)C[C@H]1NCCC[C@@H]1O` [Example 22, 6-(3-Chlorophenyl)-3-{(S)-2-hydroxy-3-[(2R,3S)-3-hydroxypiperidin-2-yl]propyl}pyrido[3,2-d]pyrimidin-4(3H)-one dihydrochloride]: the IC50 is 20 nM.

Turning to `O=c1c2nc(-c3cccc(F)c3)ccc2ncn1C[C@@H](O)CC1NCCC[C@@H]1O` (stereo partly drawn) [Example 24, 6-(3-Fluorophenyl)-3-{(2S)-2-hydroxy-3-[(3S)-3-hydroxypiperidin-2-yl]propyl}pyrido[3,2-d]pyrimidin-4(3H)-one dihydrochloride], the IC50 turned out to be 8 nM.

Turning to `O=c1c2nc(-c3ccc(F)c(F)c3)ccc2ncn1C[C@@H](O)C[C@H]1NCCC[C@@H]1O` [Example 25, 6-(3,4-Difluorophenyl)-3-{(S)-2-hydroxy-3-[(2R,3S)-3-hydroxypiperidin-2-yl]propyl}pyrido[3,2-d]pyrimidin-4(3H)-one dihydrochloride], the 50% inhibitory concentration (IC50) is 25 nM.

Consider `O=c1c2cnccc2ncn1C[C@@H](O)C[C@H]1NCCC[C@@H]1O` [Example 26, 3-{(S)-2-Hydroxy-3-[(2R,3S)-3-hydroxypiperidin-2-yl]propyl}pyrido[4,3-d]pyrimidin-4(3H)-one dihydrochloride], for which the IC50 was determined as 80 nM.

For `Cc1cc(-c2ccc(F)c(F)c2)nc2c(=O)n(C[C@@H](O)C[C@H]3NCCC[C@@H]3O)cnc12` [Example 27, 6-(3,4-difluorophenyl)-3-((S)-2-hydroxy-3-((2R,3S)-3-hydroxypiperidin-2-yl)propyl)-8-methylpyrido[3,2-d]pyrimidin-4(3H)-one dihydrochloride], the IC50 turned out to be 172 nM.

On to `Cc1cc(-c2cccc(C(F)(F)F)c2)nc2c(=O)n(C[C@@H](O)C[C@H]3NCCC[C@@H]3O)cnc12` [Example 28, 3-{(2S)-2-hydroxy-3-[(2R,3S)-3-hydroxy-2-piperidyl]propyl}-8-methyl-6-[3-(trifluoromethyl)phenyl]pyrido[3,2-d]pyrimidin-4-one;dihydrochloride], for which the IC50 worked out at 27 nM.

In general, IC50 refers to the concentration at which inhibition is half-maximal.

These data come from patent US20210122746A1, “FEBRIFUGINE DERIVATIVES” (BRISTOL-MYERS SQUIBB COMPANY, priority 2017, published 2021).
